ChEMBL document CHEMBL1157380, “Aplysamine 6, an alkaloidal inhibitor of Isoprenylcysteine carboxyl methyltransferase from the sponge Pseudoceratina sp” (J Nat Prod, 2008)
Active and inactive are the calls of the source. The calls are words filed in the database; no cut-off is given here.

Assays:
[1] = molecular target: T1, Protein-S-isoprenylcysteine O-methyltransferase (Homo sapiens, UniProt O60725); experiment: Inhibition of Icmt using [3H]SAM as substrate
[2] = molecular target: T1, Protein-S-isoprenylcysteine O-methyltransferase; experiment: Inhibition of Icmt up to 100 uM after 60 mins using [3H]biotin as substrate by artifact assay

T1 sequence (O60725 whole entry): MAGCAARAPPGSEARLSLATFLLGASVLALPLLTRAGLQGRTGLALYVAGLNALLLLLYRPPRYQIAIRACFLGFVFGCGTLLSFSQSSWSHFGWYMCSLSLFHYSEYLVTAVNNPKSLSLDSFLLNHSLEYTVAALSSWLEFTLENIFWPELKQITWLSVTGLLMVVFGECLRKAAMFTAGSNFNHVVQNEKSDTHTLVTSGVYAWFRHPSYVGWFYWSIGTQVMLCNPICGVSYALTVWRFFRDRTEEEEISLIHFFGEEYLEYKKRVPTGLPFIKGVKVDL

IC50 [1]: 14 µM | Activity [2]: inactive
SMILES: COc1ccc(/C=C/C(=O)NCCc2cc(Br)c(OCCCN)c(Br)c2)cc1Br [APLYSAMINE 6]
